ChEMBL document CHEMBL5506020 (J Med Chem, 2024)
pIC50: −log10 of the molar value. Calls of active or inactive are those of the source. The calls are words filed in the database; no cut-off is given here.

Columns and labels:
MV4-11 [1] = test: Antiproliferative activity against human MV4-11 cells incubated for 120 hrs by Cell-Titer Glo assay; conditions: MV4-11, 120 h
[2] = molecular target: Protein cereblon/Histone acetyltransferase p300 (Homo sapiens) (UniProt Q09472+Q96SW2); test: PROTAC activity at CRBN/p300 in human MV4-11 cells assessed as p300 degradation at 10 to 50 nM incubated for 24 hrs by Western blotting analysis; assay type: cell-based; conditions: dose 10-50 nM
[3] = Antiproliferative activity against human MOLM16 cells incubated for 72 hrs by Cell-Titer Glo assay; conditions: MOLM16, 72 h
MOLM-13 [4] = test: Antiproliferative activity against human MOLM-13 cells incubated for 72 hrs by Cell-Titer Glo assay; conditions: MOLM-13, 72 h
THP-1 = test: Antiproliferative activity against human THP-1 cells
KG-1 = test: Antiproliferative activity against human KG-1 cells
EOL1 = test: Antiproliferative activity against human EOL1 cells
MV4-11 [5] = test: Antitumor activity against human MV4-11 cells xenografted in NOD-SCID mouse assessed as tumor growth inhibition at 10 mg/kg, po QD for 2 weeks; assay type: functional; conditions: MV4-11, 336 h, read-out: TGI
MOLM-13 [6] = test: Downregulation of c-Myc protein level in human MOLM-13 cells at 50 nM incubated for 24 hrs by Western blotting analysis; assay type: functional, cell-based
MV4-11 [7] = test: Downregulation of c-Myc protein level in human MV4-11 cells at 50 nM incubated for 24 hrs by Western blotting analysis; assay type: functional, cell-based
MOLM-16 = test: Downregulation of c-Myc protein level in human MOLM16 cells at 50 nM incubated for 24 hrs by Western blotting analysis; assay type: functional, cell-based

Protein cereblon/Histone acetyltransferase p300 (Homo sapiens), sequence (Q09472 2-2414 limits assumed): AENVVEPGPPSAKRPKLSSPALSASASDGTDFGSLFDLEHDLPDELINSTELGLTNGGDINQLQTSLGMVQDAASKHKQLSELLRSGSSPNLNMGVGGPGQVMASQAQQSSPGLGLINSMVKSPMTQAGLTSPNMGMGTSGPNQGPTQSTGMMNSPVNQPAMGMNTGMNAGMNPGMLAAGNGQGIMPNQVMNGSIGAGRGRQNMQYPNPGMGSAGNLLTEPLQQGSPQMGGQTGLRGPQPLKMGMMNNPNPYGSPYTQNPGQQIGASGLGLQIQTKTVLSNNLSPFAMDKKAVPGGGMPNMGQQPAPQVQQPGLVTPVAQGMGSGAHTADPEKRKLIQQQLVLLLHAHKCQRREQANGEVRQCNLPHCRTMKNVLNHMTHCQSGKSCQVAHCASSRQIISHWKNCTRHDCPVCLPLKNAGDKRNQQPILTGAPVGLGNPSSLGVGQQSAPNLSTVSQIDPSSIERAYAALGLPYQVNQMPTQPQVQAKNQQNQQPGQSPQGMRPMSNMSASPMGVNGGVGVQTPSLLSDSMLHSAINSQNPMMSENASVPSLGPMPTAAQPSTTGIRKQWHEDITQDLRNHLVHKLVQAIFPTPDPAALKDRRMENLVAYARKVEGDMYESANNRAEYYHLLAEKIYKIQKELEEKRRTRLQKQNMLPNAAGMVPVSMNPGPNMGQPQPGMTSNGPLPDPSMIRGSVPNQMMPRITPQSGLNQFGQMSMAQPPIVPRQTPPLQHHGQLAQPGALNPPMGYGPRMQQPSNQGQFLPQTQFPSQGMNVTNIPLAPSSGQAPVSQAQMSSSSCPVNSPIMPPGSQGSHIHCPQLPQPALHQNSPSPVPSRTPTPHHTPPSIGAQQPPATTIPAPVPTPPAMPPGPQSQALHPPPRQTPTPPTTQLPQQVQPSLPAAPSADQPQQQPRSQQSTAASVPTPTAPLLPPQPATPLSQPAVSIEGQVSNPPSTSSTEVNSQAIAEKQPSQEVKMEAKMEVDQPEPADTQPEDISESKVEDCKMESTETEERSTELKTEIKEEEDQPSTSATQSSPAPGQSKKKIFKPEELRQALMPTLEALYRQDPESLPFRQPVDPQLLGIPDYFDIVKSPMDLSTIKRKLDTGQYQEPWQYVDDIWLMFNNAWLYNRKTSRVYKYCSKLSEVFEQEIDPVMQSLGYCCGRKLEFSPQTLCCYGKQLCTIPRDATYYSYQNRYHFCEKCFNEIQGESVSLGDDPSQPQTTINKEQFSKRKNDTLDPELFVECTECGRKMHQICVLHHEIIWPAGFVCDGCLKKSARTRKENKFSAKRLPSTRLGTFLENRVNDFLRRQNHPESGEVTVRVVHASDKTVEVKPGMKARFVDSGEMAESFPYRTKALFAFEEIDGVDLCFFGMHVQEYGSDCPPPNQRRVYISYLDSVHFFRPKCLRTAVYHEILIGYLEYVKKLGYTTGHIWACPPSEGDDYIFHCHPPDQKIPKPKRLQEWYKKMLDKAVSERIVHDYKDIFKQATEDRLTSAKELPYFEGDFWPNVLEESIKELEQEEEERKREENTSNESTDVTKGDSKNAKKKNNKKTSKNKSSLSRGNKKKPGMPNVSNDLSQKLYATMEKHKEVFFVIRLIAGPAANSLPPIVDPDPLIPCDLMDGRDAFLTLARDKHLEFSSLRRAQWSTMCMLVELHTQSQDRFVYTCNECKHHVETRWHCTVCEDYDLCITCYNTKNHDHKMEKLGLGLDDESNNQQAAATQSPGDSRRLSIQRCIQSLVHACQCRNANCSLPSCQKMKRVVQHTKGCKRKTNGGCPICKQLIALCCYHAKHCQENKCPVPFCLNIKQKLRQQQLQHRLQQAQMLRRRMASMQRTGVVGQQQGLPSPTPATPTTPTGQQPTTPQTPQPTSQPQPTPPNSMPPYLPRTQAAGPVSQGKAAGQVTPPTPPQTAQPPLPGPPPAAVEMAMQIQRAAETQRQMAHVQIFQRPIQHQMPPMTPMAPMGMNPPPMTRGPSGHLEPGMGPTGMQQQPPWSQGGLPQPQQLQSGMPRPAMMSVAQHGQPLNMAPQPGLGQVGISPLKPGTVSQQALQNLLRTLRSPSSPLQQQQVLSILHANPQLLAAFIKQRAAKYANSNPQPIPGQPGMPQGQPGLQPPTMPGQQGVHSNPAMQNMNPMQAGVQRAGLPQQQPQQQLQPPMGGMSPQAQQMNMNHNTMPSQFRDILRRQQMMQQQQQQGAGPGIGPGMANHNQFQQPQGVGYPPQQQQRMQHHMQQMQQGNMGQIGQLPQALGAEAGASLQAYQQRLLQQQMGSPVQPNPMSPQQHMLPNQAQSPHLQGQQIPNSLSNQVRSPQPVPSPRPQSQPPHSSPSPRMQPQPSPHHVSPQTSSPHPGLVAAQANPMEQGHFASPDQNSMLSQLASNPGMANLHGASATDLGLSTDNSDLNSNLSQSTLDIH
Protein cereblon/Histone acetyltransferase p300 (Homo sapiens), sequence (Q96SW2 whole entry partner): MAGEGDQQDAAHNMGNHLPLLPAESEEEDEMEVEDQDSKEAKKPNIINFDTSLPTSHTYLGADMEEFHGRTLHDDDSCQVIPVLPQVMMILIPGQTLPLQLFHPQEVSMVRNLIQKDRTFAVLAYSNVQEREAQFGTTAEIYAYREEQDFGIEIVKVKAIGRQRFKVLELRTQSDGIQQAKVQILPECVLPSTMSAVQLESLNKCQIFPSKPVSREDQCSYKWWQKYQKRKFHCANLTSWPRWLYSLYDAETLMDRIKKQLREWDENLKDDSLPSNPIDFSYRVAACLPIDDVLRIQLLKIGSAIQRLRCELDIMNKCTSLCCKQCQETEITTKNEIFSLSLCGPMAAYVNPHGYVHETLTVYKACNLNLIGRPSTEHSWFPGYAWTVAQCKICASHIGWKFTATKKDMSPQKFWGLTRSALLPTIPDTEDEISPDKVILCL

Cc1noc(C)c1-c1ccc2c(c1)nc([C@@H]1CCCC(=O)N1c1ccc(F)c(F)c1)n2C1CCN(CC(=O)NCCOCCOCCNc2ccc3c(c2)C(=O)N(C2CCC(=O)NC2=O)C3=O)CC1 (some centres not stated)
pIC50 (MV4-11 [1]): 5.22 | Activity [2]: inactive

Cc1noc(C)c1-c1ccc2c(c1)nc([C@@H]1CCCC(=O)N1c1ccc(F)c(F)c1)n2C1CCN(CC(=O)Nc2ccc(-c3ccc(CNc4cccc5c4C(=O)N(C4CCC(=O)N(C)C4=O)C5=O)cc3)nc2)CC1 (some centres not stated)
pIC50 [3]: 6.70 | pIC50 (MV4-11 [1]): 7.06 | pIC50 (MOLM-13 [4]): < 6.00

Cc1noc(C)c1-c1ccc2c(c1)nc([C@@H]1CCCC(=O)N1c1ccc(F)c(F)c1)n2C1CCN(CC(=O)NCCCCCNc2ccc3c(c2)C(=O)N(C2CCC(=O)NC2=O)C3=O)CC1 (some centres not stated)
pIC50 (MV4-11 [1]): 6.00 | Activity [2]: inactive

Cc1noc(C)c1-c1ccc2c(c1)nc([C@@H]1CCCC(=O)N1c1ccc(F)c(F)c1)n2C1CCN(CC(=O)NCCOCCOCCNc2cccc3c2C(=O)N(C2CCC(=O)NC2=O)C3=O)CC1 (some centres not stated)
pIC50 (MV4-11 [1]): 5.78

CO[C@H]1CC[C@H](n2c([C@@H]3CCCC(=O)N3c3ccc(F)c(F)c3)nc3cc(-c4c(C)noc4C)ccc32)CC1 [INOBRODIB]
pIC50 (THP-1): > 5.52 | pIC50 (KG-1): > 5.52 | pIC50 [3]: 7.89 | pIC50 (MV4-11 [1]): 7.69 | pIC50 (MOLM-13 [4]): 6.99 | pIC50 (EOL1): > 5.52 | inhibition in vivo at 10 mg/kg (MV4-11 [5]): 65%

Cc1noc(C)c1-c1ccc2c(c1)nc([C@@H]1CCCC(=O)N1c1ccc(F)c(F)c1)n2C1CCN(CC(=O)NC2CCN(c3cccc4c3C(=O)N(C3CCC(=O)NC3=O)C4=O)CC2)CC1 (some centres not stated)
pIC50 (MV4-11 [1]): 5.76

Cc1noc(C)c1-c1ccc2c(c1)nc([C@@H]1CCCC(=O)N1c1ccc(F)c(F)c1)n2C1CCN(CC(=O)Nc2ccc(CNc3cccc4c3C(=O)N(C3CCC(=O)NC3=O)C4=O)cc2)CC1 (some centres not stated)
pIC50 (MV4-11 [1]): 7.07 | Activity [2]: Active

Cc1noc(C)c1-c1ccc2c(c1)nc([C@@H]1CCCC(=O)N1c1ccc(F)c(F)c1)n2C1CCN(CC(=O)NCCOCCOCCOCCNc2ccc3c(c2)C(=O)N(C2CCC(=O)NC2=O)C3=O)CC1 (some centres not stated)
pIC50 (MV4-11 [1]): < 5.00 | Activity [2]: inactive

Cc1noc(C)c1-c1ccc2c(c1)nc([C@@H]1CCCC(=O)N1c1ccc(F)c(F)c1)n2C1CCN(CC(=O)Nc2cnc(-c3ccc(CNc4cccc5c4C(=O)N(C4CCC(=O)N(C)C4=O)C5=O)cc3)nc2)CC1 (some centres not stated)
pIC50 [3]: 7.34 | pIC50 (MV4-11 [1]): 7.35 | pIC50 (MOLM-13 [4]): < 6.00

Cc1noc(C)c1-c1ccc2c(c1)nc([C@@H]1CCCC(=O)N1c1ccc(F)c(F)c1)n2C1CCN(CC(=O)NCCCCNc2ccc3c(c2)C(=O)N(C2CCC(=O)NC2=O)C3=O)CC1 (some centres not stated)
pIC50 (MV4-11 [1]): 5.66 | Activity [2]: inactive

Cc1noc(C)c1-c1ccc2c(c1)nc([C@@H]1CCCC(=O)N1c1ccc(F)c(F)c1)n2C1CCN(CC(=O)NCCCNc2ccc3c(c2)C(=O)N(C2CCC(=O)NC2=O)C3=O)CC1 (some centres not stated)
pIC50 (MV4-11 [1]): 5.58 | Activity [2]: inactive

Cc1noc(C)c1-c1ccc2c(c1)nc([C@@H]1CCCC(=O)N1c1ccc(F)c(F)c1)n2C1CCN(CC(=O)N2CCC(CN3CCN(c4cccc5c4C(=O)N(C4CCC(=O)NC4=O)C5=O)CC3)CC2)CC1 (some centres not stated)
pIC50 (MV4-11 [1]): 6.58 | Activity [2]: inactive

Cc1noc(C)c1-c1ccc2c(c1)nc([C@@H]1CCCC(=O)N1c1ccc(F)c(F)c1)n2C1CCN(CC(=O)NCCOCCOCCOCCNc2cccc3c2C(=O)N(C2CCC(=O)NC2=O)C3=O)CC1 (some centres not stated)
pIC50 (MV4-11 [1]): 5.70

Cc1noc(C)c1-c1ccc2c(c1)nc([C@@H]1CCCC(=O)N1c1ccc(F)c(F)c1)n2C1CCN(CC(=O)Nc2ccc(CC3CCN(c4cccc5c4C(=O)N(C4CCC(=O)NC4=O)C5=O)CC3)cc2)CC1 (some centres not stated)
pIC50 (MV4-11 [1]): 6.56 | Activity [2]: Active

Cc1noc(C)c1-c1ccc2c(c1)nc([C@@H]1CCCC(=O)N1c1ccc(F)c(F)c1)n2C1CCN(CC(=O)N2CCN(c3cccc4c3C(=O)N(C3CCC(=O)NC3=O)C4=O)CC2)CC1 (some centres not stated)
pIC50 (MV4-11 [1]): 5.77

Cc1noc(C)c1-c1ccc2c(c1)nc([C@@H]1CCCC(=O)N1c1ccc(F)c(F)c1)n2C1CCN(CC(=O)NCCCCCCNc2ccc3c(c2)C(=O)N(C2CCC(=O)NC2=O)C3=O)CC1 (some centres not stated)
pIC50 (MV4-11 [1]): 5.99 | Activity [2]: inactive

Cc1noc(C)c1-c1ccc2c(c1)nc([C@@H]1CCCC(=O)N1c1ccc(F)c(F)c1)n2C1CCN(CC(=O)N2CCC(N3CCC(Nc4cccc5c4C(=O)N(C4CCC(=O)NC4=O)C5=O)CC3)CC2)CC1 (some centres not stated)
pIC50 (MV4-11 [1]): 6.95

Cc1noc(C)c1-c1ccc2c(c1)nc([C@@H]1CCCC(=O)N1c1ccc(F)c(F)c1)n2C1CCN(CC(=O)NCCCCCCNc2cccc3c2C(=O)N(C2CCC(=O)NC2=O)C3=O)CC1 (some centres not stated)
pIC50 (MV4-11 [1]): 6.39 | Activity [2]: Active

Cc1noc(C)c1-c1ccc2c(c1)nc([C@@H]1CCCC(=O)N1c1ccc(F)c(F)c1)n2C1CCN(CC(=O)N2CCN(CCNc3cccc4c3C(=O)N(C3CCC(=O)NC3=O)C4=O)CC2)CC1 (some centres not stated)
pIC50 (MV4-11 [1]): 6.65 | Activity [2]: inactive

Cc1noc(C)c1-c1ccc2c(c1)nc([C@@H]1CCCC(=O)N1c1ccc(F)c(F)c1)n2C1CCN(CC(=O)NCCOCCNc2ccc3c(c2)C(=O)N(C2CCC(=O)NC2=O)C3=O)CC1 (some centres not stated)
pIC50 (MV4-11 [1]): 5.77 | Activity [2]: inactive

Cc1noc(C)c1-c1ccc2c(c1)nc([C@@H]1CCCC(=O)N1c1ccc(F)c(F)c1)n2C1CCN(CC(=O)Nc2ccc(-c3ccc(CNc4cccc5c4C(=O)N(C4CCC(=O)NC4=O)C5=O)cc3)cc2)CC1 (some centres not stated)
Activity (MOLM-13 [6]): Active | pIC50 [3]: 7.84 | pIC50 (MV4-11 [1]): 8.24 | Activity (MV4-11 [7]): Active | Activity (MOLM-16): Active | pIC50 (MOLM-13 [4]): 6.86

Cc1noc(C)c1-c1ccc2c(c1)nc([C@@H]1CCCC(=O)N1c1ccc(F)c(F)c1)n2C1CCN(CC(=O)NCC#Cc2cccc3c2C(=O)N(C2CCC(=O)NC2=O)C3=O)CC1 (some centres not stated)
pIC50 (MV4-11 [1]): 5.94

Cc1noc(C)c1-c1ccc2c(c1)nc([C@@H]1CCCC(=O)N1c1ccc(F)c(F)c1)n2C1CCN(C)CC1
pIC50 (MV4-11 [1]): 6.78

Cc1noc(C)c1-c1ccc2c(c1)nc([C@@H]1CCCC(=O)N1c1ccc(F)c(F)c1)n2C1CCN(CC(=O)NCCCCCCCCCCNc2cccc3c2C(=O)N(C2CCC(=O)NC2=O)C3=O)CC1 (some centres not stated)
pIC50 (MV4-11 [1]): 6.22 | Activity [2]: Active

Cc1noc(C)c1-c1ccc2c(c1)nc([C@@H]1CCCC(=O)N1c1ccc(F)c(F)c1)n2C1CCN(CC(=O)Nc2ccc(CCNc3cccc4c3C(=O)N(C3CCC(=O)NC3=O)C4=O)cc2)CC1 (some centres not stated)
pIC50 (MV4-11 [1]): 6.88 | Activity [2]: Active

Cc1noc(C)c1-c1ccc2c(c1)nc([C@@H]1CCCC(=O)N1c1ccc(F)c(F)c1)n2C1CCN(CC(=O)NCCC2CCN(c3cccc4c3C(=O)N(C3CCC(=O)NC3=O)C4=O)CC2)CC1 (some centres not stated)
pIC50 (MV4-11 [1]): 5.93

Cc1noc(C)c1-c1ccc2c(c1)nc([C@@H]1CCCC(=O)N1c1ccc(F)c(F)c1)n2C1CCN(CC(=O)NCC2CCN(c3cccc4c3C(=O)N(C3CCC(=O)NC3=O)C4=O)CC2)CC1 (some centres not stated)
pIC50 (MV4-11 [1]): 6.01

Cc1noc(C)c1-c1ccc2c(c1)nc([C@@H]1CCCC(=O)N1c1ccc(F)c(F)c1)n2C1CCN(CC(=O)NCCCCCCCNc2cccc3c2C(=O)N(C2CCC(=O)NC2=O)C3=O)CC1 (some centres not stated)
pIC50 (MV4-11 [1]): 6.28 | Activity [2]: Active

Cc1noc(C)c1-c1ccc2c(c1)nc([C@@H]1CCCC(=O)N1c1ccc(F)c(F)c1)n2C1CCN(CC(=O)N2CCC(Nc3cccc4c3C(=O)N(C3C(=O)CCNC3=O)C4=O)CC2)CC1 (some centres not stated)
pIC50 (MV4-11 [1]): 5.75

Cc1noc(C)c1-c1ccc2c(c1)nc([C@@H]1CCCC(=O)N1c1ccc(F)c(F)c1)n2C1CCN(CC(=O)NCCCC#Cc2cccc3c2C(=O)N(C2CCC(=O)NC2=O)C3=O)CC1 (some centres not stated)
pIC50 (MV4-11 [1]): 5.76

Cc1noc(C)c1-c1ccc2c(c1)nc([C@@H]1CCCC(=O)N1c1ccc(F)c(F)c1)n2C1CCN(CC(=O)NCCCCCNc2cccc3c2C(=O)N(C2CCC(=O)NC2=O)C3=O)CC1 (some centres not stated)
pIC50 (MV4-11 [1]): 6.33 | Activity [2]: Active

Cc1noc(C)c1-c1ccc2c(c1)nc([C@@H]1CCCC(=O)N1c1ccc(F)c(F)c1)n2C1CCN(CC(=O)NCc2ccc(CNc3cccc4c3C(=O)N(C3CCC(=O)NC3=O)C4=O)cc2)CC1 (some centres not stated)
pIC50 (MV4-11 [1]): 5.91 | Activity [2]: Active

Cc1noc(C)c1-c1ccc2c(c1)nc([C@@H]1CCCC(=O)N1c1ccc(F)c(F)c1)n2C1CCN(CC(=O)NCCCCCCCCNc2cccc3c2C(=O)N(C2CCC(=O)NC2=O)C3=O)CC1 (some centres not stated)
pIC50 (MV4-11 [1]): 6.66 | Activity [2]: Active

Cc1noc(C)c1-c1ccc2c(c1)nc([C@@H]1CCCC(=O)N1c1ccc(F)c(F)c1)n2C1CCN(CC(=O)NCCNc2ccc3c(c2)C(=O)N(C2CCC(=O)NC2=O)C3=O)CC1 (some centres not stated)
pIC50 (MV4-11 [1]): 5.74 | Activity [2]: inactive

Cc1noc(C)c1-c1ccc2c(c1)nc([C@@H]1CCCC(=O)N1c1ccc(F)c(F)c1)n2C1CCN(CC(=O)NCCOCCNc2cccc3c2C(=O)N(C2CCC(=O)NC2=O)C3=O)CC1 (some centres not stated)
pIC50 (MV4-11 [1]): 5.72

Cc1noc(C)c1-c1ccc2c(c1)nc([C@@H]1CCCC(=O)N1c1ccc(F)c(F)c1)n2C1CCN(CC(=O)Nc2ccc(C3CCN(c4cccc5c4C(=O)N(C4CCC(=O)NC4=O)C5=O)CC3)cc2)CC1 (some centres not stated)
pIC50 (MV4-11 [1]): 7.52 | Activity [2]: Active

Cc1noc(C)c1-c1ccc2c(c1)nc([C@@H]1CCCC(=O)N1c1ccc(F)c(F)c1)n2C1CCN(CC(=O)NCCC#Cc2cccc3c2C(=O)N(C2CCC(=O)NC2=O)C3=O)CC1 (some centres not stated)
pIC50 (MV4-11 [1]): 5.74
